Assay results from US20190106460A1, “BINDING INHIBITORS OF THE BETA. TRANSDUCIN REPEAT-CONTAINING PROTEIN” (priority 2011, published 2019).
Like-named read-outs stand apart in the source and are kept apart here. Non-standard residues stand in square brackets, D forms with d. Residues, ends and D or L forms follow the SMILES beside them. *: point of attachment. 2Naphthylsulfonyl = O=S(=O)(c1ccc2ccccc2c1)*; Phe(3-Cl) = N[C@@H](Cc1cccc(Cl)c1)C(=O)O; Phe(3-F) = N[C@@H](Cc1cccc(F)c1)C(=O)O; NMeE = CN[C@@H](CCC(=O)O)C(=O)O; X1 = CCCCOc1ccc(S(=O)(=O)*)cc1; Tos = Cc1ccc(S(=O)(=O)*)cc1; Moc = COC(=O)*

Tests used:
βTrCP [1] = biological target: βTrCP (Homo sapiens, UniProt Q9Y297); assay: Fluorescence polarisation (FP) binding assay with fluorescein-tagged IκB peptide
Target sequence in this assay (P63208 whole entry partner, one chain of several): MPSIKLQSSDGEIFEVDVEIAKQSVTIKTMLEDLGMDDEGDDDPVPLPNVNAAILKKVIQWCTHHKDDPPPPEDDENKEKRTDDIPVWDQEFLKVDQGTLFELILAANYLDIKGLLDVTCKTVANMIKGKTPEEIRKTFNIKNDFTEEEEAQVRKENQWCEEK

βTrCP [2] = biological target: T1, βTrCP (Homo sapiens, UniProt Q9Y297); assay: Biotin pull down assay with biotinylated IκB peptide; type: binding; conditions: for Biotin Pulldown Assay 10 μM: 10 μM compound; for Biotin Pulldown Assay 100 μM: 100 μM compound
T1 sequence (Q9Y297 1-605): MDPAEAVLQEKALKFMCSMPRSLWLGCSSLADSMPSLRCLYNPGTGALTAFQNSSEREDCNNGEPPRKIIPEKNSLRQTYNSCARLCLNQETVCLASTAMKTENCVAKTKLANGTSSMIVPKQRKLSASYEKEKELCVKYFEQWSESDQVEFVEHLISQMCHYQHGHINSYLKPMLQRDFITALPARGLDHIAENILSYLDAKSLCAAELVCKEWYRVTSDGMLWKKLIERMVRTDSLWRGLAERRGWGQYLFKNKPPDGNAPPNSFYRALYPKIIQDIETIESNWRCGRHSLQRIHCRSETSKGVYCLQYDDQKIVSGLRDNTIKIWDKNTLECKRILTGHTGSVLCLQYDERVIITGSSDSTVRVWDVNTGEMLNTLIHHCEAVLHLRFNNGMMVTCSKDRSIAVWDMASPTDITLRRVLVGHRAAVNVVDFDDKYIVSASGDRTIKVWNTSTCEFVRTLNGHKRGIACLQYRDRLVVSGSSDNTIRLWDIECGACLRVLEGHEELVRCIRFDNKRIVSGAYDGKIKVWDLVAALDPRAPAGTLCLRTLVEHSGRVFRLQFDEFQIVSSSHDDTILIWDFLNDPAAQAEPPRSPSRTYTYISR

β-TrCP1/Skp1 = β-TrCP1/Skp1 (Homo sapiens, UniProt Q9Y297); assay: βTrCP ubiquitination assay (Ub assay); type: biochemical; conditions: for Ub Assay 10 μM: 10 μM compound; for Ub Assay 100 μM: 100 μM compound
β-TrCP1/Skp1, sequence (P63208 2-163 partner limits assumed, one chain of several): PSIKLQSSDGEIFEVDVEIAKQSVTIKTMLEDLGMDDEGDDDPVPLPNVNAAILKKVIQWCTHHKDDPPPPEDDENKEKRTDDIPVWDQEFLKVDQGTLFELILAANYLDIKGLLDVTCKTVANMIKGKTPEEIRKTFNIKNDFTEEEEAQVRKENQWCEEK
Procedure: (§1) βTrCP Ubiquitination Assay and Selectivity Assays
0.5 μM Peptide substrate (biotin)
(§2) Master mixes were prepared in a 50 mM Herpes buffer at pH 7.5, in 75 mM NaCl and 1 mM DTT without Mg or ATP and peptides were added to a final concentration of 100 μM. Reactions were incubated at room temperature for 30 minutes and then Mg/ATP was added to the mix. Reactions were further incubated for an additional 60 minutes and then stopped by adding SDS gel loading buffer and boiled for 5 minutes. Reactions were run on SDS-PAGE (10%) and transferred to nitrocellulose membranes and probed with HRP-Streptavidin.
Candidate compounds were tested in duplicate at both 10 and 100 μM against the E3 ligase cascades βTrCP(IκBα) and βTrCP(β-catenin). The E3 assays were carried out according to the component concentrations detailed in Table 9. In each case the E2 was HA,6His-UbcH3-(hu,FL), the E1 was 6His-UBE1-(hu,FL) and the ubiquitin (Sigma U6253) was biotinylated at a 5:1 ratio. Substrate phosphorylation was performed in the absence of compound; consequently any observed signal modulation should not reflect inhibition of the up-stream kinase reaction. All other steps (E1, E2 and substrate ubiquitination) were carried out in the presence of compound. The stopped reaction mix (10 μl) was added to an ECL plate loaded with anti c-Myc ( 1/500 Dilution, Millipore 05-724) and blocked with 5% BSA. Binding was allowed to proceed for 1 hour at RT before a wash step (3 40 μl PBST washes). Detection was achieved by binding SA-Ru TAG at 1 μg/ml (1 hour @ RT, 3 40 μl PBST washes) before reading on an MSD Sector Imager 6000.
Assays were performed as described above

Skp2 = Skp2 (Homo sapiens, UniProt Q13309); assay: Selectivity assay vs other E3s: Skp2; type: biochemical; conditions: for inhibition at 100 µM: value in brackets, read-out: % Inhibition Skp2 @ (100 μM); for inhibition at 10 µM: read-out: % Inhibition Skp2 @ 10 μM
Skp2, sequence (Q13309 whole entry, species assumed): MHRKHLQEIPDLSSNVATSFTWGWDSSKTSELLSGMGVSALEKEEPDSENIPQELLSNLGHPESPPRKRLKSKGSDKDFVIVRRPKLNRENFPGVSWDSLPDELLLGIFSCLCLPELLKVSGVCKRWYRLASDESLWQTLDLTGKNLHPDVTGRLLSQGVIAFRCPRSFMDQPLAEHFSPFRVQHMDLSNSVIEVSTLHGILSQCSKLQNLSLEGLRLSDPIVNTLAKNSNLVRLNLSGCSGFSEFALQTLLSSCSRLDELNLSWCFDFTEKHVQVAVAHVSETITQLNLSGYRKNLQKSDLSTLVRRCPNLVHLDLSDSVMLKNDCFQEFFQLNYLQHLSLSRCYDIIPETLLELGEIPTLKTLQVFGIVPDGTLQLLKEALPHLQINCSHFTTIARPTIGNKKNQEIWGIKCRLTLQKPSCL
Skp2, sequence (P63208 whole entry partner, species assumed): as the sequence (P63208 whole entry partner, one chain of several) above
Skp2, sequence (Q13616 whole entry partner, species assumed): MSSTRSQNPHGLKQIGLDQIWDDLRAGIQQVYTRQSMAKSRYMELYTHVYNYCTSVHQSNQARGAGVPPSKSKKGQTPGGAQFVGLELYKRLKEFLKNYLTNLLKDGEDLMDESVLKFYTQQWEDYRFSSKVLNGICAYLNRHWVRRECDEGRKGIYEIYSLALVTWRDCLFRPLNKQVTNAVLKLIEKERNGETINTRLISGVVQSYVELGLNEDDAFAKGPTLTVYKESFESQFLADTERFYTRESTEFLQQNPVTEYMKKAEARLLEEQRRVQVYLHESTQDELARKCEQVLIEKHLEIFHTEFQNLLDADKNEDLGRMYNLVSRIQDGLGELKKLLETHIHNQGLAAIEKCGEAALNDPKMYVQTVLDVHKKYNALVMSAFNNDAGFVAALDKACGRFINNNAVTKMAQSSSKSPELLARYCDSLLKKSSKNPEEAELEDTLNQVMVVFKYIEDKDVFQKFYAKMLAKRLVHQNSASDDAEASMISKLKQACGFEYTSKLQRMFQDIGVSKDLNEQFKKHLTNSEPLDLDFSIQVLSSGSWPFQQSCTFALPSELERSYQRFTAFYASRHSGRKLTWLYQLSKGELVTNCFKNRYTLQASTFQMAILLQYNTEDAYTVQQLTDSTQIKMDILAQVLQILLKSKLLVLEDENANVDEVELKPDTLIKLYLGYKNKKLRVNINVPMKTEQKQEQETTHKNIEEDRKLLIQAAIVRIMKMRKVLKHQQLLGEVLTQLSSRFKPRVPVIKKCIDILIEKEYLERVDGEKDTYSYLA
Skp2, sequence (P62877 whole entry partner, species assumed): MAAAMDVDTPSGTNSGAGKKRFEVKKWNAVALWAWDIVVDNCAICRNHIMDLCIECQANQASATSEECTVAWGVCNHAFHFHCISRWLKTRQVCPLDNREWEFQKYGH
Procedure: as §1, §2
(§3) Candidate compounds were tested for inhibition of Fbw7 and Skp2 as described above.

FBW7/Skp1 = FBW7/Skp1 (Homo sapiens, UniProt Q969H0); assay: Selectivity assay vs other E3s: Fbw7; type: biochemical; conditions: for inhibition at 100 µM: value in brackets, read-out: % Inhibition Fbw7 @ (100 μM); for inhibition at 10 µM: read-out: % Inhibition Fbw7 @ 10 μM
FBW7/Skp1, sequence (Q969H0 whole entry, species assumed): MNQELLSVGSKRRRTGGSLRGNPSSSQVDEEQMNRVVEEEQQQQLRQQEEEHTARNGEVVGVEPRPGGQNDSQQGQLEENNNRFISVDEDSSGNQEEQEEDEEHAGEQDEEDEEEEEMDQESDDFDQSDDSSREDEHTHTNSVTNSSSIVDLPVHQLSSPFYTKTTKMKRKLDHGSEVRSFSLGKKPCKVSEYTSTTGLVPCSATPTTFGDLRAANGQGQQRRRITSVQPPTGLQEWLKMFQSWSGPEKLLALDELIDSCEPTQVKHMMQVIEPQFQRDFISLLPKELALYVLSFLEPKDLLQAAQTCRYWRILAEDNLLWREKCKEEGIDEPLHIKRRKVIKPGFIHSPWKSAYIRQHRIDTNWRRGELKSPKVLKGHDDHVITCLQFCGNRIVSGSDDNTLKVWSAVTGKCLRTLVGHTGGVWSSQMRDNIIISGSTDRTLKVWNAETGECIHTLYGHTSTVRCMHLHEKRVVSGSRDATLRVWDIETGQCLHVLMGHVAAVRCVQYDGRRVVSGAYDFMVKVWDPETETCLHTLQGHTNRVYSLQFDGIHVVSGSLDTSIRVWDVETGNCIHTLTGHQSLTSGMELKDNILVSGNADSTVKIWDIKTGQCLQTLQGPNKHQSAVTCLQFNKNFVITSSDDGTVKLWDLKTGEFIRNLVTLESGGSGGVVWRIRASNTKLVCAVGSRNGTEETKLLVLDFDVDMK
FBW7/Skp1, sequence (P63208 whole entry partner, species assumed): as the sequence (P63208 whole entry partner, one chain of several) above
FBW7/Skp1, sequence (Q13616 whole entry partner, species assumed): as the sequence (Q13616 whole entry partner, species assumed) above
FBW7/Skp1, sequence (P62877 whole entry partner, species assumed): as the sequence (P62877 whole entry partner, species assumed) above
Procedure: as §1, §2
FBW7 selectivity assays were performed in the same manner except using FBW7/Skp1 as E3 component and cyclin E as the substrate. Blots were probed using anti-cyclin E antibody.
as §3

[3] = Table 11, with spread, read-out: FP IC50/μM
[4] = Tables 1, 3, 7, 8, 10 nM fluorescein-tagged IκB peptide, read-out: FP Assay IC50/μM

SMILES	IC50 (βTrCP [1]; [3]) [µM]	Biotin Pulldown Assay 10 μM (βTrCP [2])	Biotin Pulldown Assay 100 μM (βTrCP [2])	Ub Assay 10 μM (β-TrCP1/Skp1)	Ub Assay 100 μM (β-TrCP1/Skp1)	inhibition at 100 µM (Skp2) [%]	inhibition at 10 µM (Skp2) [%]	inhibition at 100 µM (FBW7/Skp1) [%]	inhibition at 10 µM (FBW7/Skp1) [%]	IC50 (βTrCP [1]; [4]) [µM]
NC(=O)[C@H](CCC(=O)O)NC(=O)[C@H](Cc1c[nH]c2ccccc12)NC(=O)[C@H](Cc1cccc(F)c1)NC(=O)CNC(=O)[C@H](CCC(=O)O)NC(=O)[C@@H](CC(=O)O)NS(=O)(=O)c1ccc2ccccc2c1 [UBP031, 2-NaphthylSO2-dEGF(3F)WE-NH2] (2Naphthylsulfonyl-[dD]EG[Phe(3-F)]WE-NH2)	0.044 ± 0.005	reduces/	inhibits	reduces/	inhibits	17	0	11	10	
Cc1ccc(S(=O)(=O)N[C@H](CC(=O)O)C(=O)N[C@@H](CCC(=O)O)C(=O)NCC(=O)N[C@@H](Cc2cccc(F)c2)C(=O)N[C@@H](Cc2c[nH]c3ccccc23)C(=O)N[C@@H](CC(=O)O)C(N)=O)cc1 [UBP027, Ts-dEGF(3F)WD-NH2] (Tos-[dD]EG[Phe(3-F)]WD-NH2)	0.034 ± 0.005	s. reduces/	inhibits	inhibits/	inhibits	6	4	8	3	0.034
CCCCOc1ccc(S(=O)(=O)N[C@H](CC(=O)O)C(=O)N[C@@H](CCC(=O)O)C(=O)NCC(=O)N[C@@H](Cc2cccc(F)c2)C(=O)N[C@@H](Cc2c[nH]c3ccccc23)C(=O)N[C@@H](CCC(=O)O)C(N)=O)cc1 [UBP030, 4-(BuO)-PhSO2-dEGF(3F)WE-NH2] (X1-[dD]EG[Phe(3-F)]WE-NH2)	0.056 ± 0.008	reduces/	inhibits	reduces/	inhibits	13	0	12	7	0.056
Cc1ccc(S(=O)(=O)N[C@H](CC(=O)O)C(=O)N[C@@H](CC(=O)O)C(=O)NCC(=O)N[C@@H](Cc2cccc(F)c2)C(=O)N[C@@H](Cc2c[nH]c3ccccc23)C(=O)N[C@@H](CCC(=O)O)C(N)=O)cc1 [UBP025, Ts-dDGF(3F)WE-NH2] (Tos-[dD]DG[Phe(3-F)]WE-NH2)	0.025 ± 0.004	s. reduces/	inhibits	inhibits/	inhibits	22	0	8	1	0.025
Cc1ccc(S(=O)(=O)N[C@H](CC(=O)O)C(=O)N[C@@H](CCC(=O)O)C(=O)NCC(=O)N[C@@H](Cc2cccc(Cl)c2)C(=O)N[C@@H](Cc2c[nH]c3ccccc23)C(=O)N(C)[C@@H](CCC(=O)O)C(N)=O)cc1 [UBP033, Ts-dEGF(3Cl)WE(Me)-NH2] (Tos-[dD]EG[Phe(3-Cl)]W[NMeE]-NH2)			inhibits		inhibits	10	0	11	7	0.017
Cc1ccc(S(=O)(=O)N[C@H](CC(=O)O)C(=O)N[C@@H](CCC(=O)O)C(=O)NCC(=O)N[C@@H](Cc2cccc(Cl)c2)C(=O)N[C@@H](Cc2c[nH]c3ccccc23)C(=O)N[C@@H](CCC(=O)O)C(N)=O)cc1 [UBP034, Ts-dEGF(3Cl)WE-NH2] (Tos-[dD]EG[Phe(3-Cl)]WE-NH2)	0.01 ± 0.002	s. reduces/	inhibits	inhibits/	inhibits	0	0	6	8	
COC(=O)N[C@H](CC(=O)O)C(=O)N[C@@H](CCC(=O)O)C(=O)NCC(=O)N[C@@H](Cc1cccc(F)c1)C(=O)N[C@@H](Cc1c[nH]c2ccccc12)C(=O)N[C@@H](CCC(=O)O)C(N)=O [UBP020, MeO(CO)-dEGF(3F)WE-NH2] (Moc-[dD]EG[Phe(3-F)]WE-NH2)	0.076 ± 0.014	reduces/	inhibits	inhibits/	inhibits	16	0	8	6	
